Measurements taken from ChEMBL document CHEMBL4334537 (ACS Med Chem Lett, 2020).

Legend:
[1] = Chemical stability of fluorescent labelled compound in PBS buffer at pH 7.4 and 22 degree C measured after 48 hrs by RP-HPLC analysis; assay type: physicochemical; conditions: pH 7.4, 48 h
[2] = Chemical stability of fluorescent labelled compound in PBS buffer assessed as compound decomposition at pH 7.4 and 22 degree C after > 24 hrs by RP-HPLC analysis; assay type: physicochemical; conditions: pH 7.4, 24 h

Row | SMILES | Stability [1] | Stability [2]
1 | CC[C@H](C)[C@H](NC(=O)[C@H](Cc1ccc(O)cc1)NC(=O)[C@@H]1CCCN1C(=O)[C@H](CCCNC(=N)N)NC(=O)[C@@H](N)CCCNC(=N)NC(=O)NCCCCNC(=O)CCCCCN1/C(=C/C=C/C=C/C2=[N+](CCCCS(=O)(=O)[O-])c3ccccc3C2(C)C)C(C)(C)c2cc(S(=O)(=O)O)ccc21)C(=O)N[C@@H](CC(C)C)C(=O)O.O=C(O)C(F)(F)F.O=C(O)C(F)(F)F | Stable | –
2 | CC[C@H](C)[C@H](NC(=O)[C@H](Cc1ccc(O)cc1)NC(=O)[C@@H]1CCCN1C(=O)[C@H](CCCNC(=N)N)NC(=O)[C@@H](N)CCCNC(=N)NC(=O)NCCOCCOCC[n+]1c(C)cc(/C=C/C=C/c2ccc(N(C)C)cc2)cc1C)C(=O)N[C@@H](CC(C)C)C(=O)O.O=C(O)C(F)(F)F.O=C(O)C(F)(F)F.O=C(O)C(F)(F)F.O=C([O-])C(F)(F)F | – | Unstable
3 | CC[C@H](C)[C@H](NC(=O)[C@H](Cc1ccc(O)cc1)NC(=O)[C@@H]1CCCN1C(=O)[C@H](CCCNC(=N)NC(=O)NCCOCCOCCNC(=O)CCCCCN1/C(=C/C=C/C=C/C2=[N+](CCCCS(=O)(=O)[O-])c3ccccc3C2(C)C)C(C)(C)c2cc(S(=O)(=O)O)ccc21)NC(=O)[C@@H](N)CCCNC(=N)N)C(=O)N[C@@H](CC(C)C)C(=O)O.O=C(O)C(F)(F)F.O=C(O)C(F)(F)F | Stable | –
4 | CC[C@H](C)[C@H](NC(=O)[C@H](Cc1ccc(O)cc1)NC(=O)[C@@H]1CCCN1C(=O)[C@H](CCCNC(=N)N)NC(=O)[C@@H](N)CCCNC(=N)NC(=O)NCCOCCOCCNC(=O)CCCCCN1/C(=C/C=C/C=C/C2=[N+](CCCCS(=O)(=O)[O-])c3ccccc3C2(C)C)C(C)(C)c2ccccc21)C(=O)N[C@@H](CC(C)C)C(=O)O.O=C(O)C(F)(F)F.O=C(O)C(F)(F)F.O=C(O)C(F)(F)F | Stable | –
